{"source": "patent US6429204B1", "about": "“Method of inhibiting cancer growth” (University of Miami, priority 1997, dated 2002)", "key": {"[1]": {"tested_on": "in vitro activated gelatinases (MMPs) from MAT LyLu and TSU PR1 conditioned medium", "assay": "3H-gelatin gelatinase activity assay on processed conditioned medium of prostate cancer cells", "assay_type": "biochemical", "conditions": "for IC50: read-out: 50% inhibition dose (IC50), activated gelatinases", "procedure": "The effects of CMT-3 and doxycycline on gelatinase activity or expression by prostate cancer cells were tested. First, we tested the capacity of CMT-3 and doxycycline to inhibit MMP secretion into culture medium. Gelatinase activity was measured using a method adapted from the method of Dean and Woessner (1985). Conditioned culture medium was collected from MAT LyLu and TSU PR1 cells treated with CMT-3 or doxycycline for two days. The serum-free culture medium comprised RPMI 1640 basal medium containing insulin (5 μg/mL), transferrin (5 μg/mL), selenious acid ([…]), and gentamicin (2 μg/mL). […] (Dean et al. 1987; Woessner 1991.) The dialyzed medium was assayed for gelatinase activity following activation of latent MMPs with 1 mM p-aminophenyl mercuric acetate (APMA) for 30 min at 37° C. The assay mix was 25 μg ^3H-gelatin (prepared from heat-denatured ^3H-acetylated acid-soluble collagen), 0.1 mL of processed culture-conditioned medium, 1 mM phenylmethyl sulfonyl fluoride (PMSF) in a total volume of 0.5 mL of an assay buffer (20 mM Tris-HCl, pH 7.4, 30 mM NaCl, 0.005% Brij35, 10 mM CaCl2, 2 μM ZnSO4, and 0.02% NaN3). In some cases, 1 mM CaCl2 (instead of 10 mM) was used. Blanks were obtained by adding 1 mM 1,10-phenanthroline. Doxycycline or CMT-3 were added to the assay mixture following activation of the latent MMPs and just before adding the substrate ^3H-gelatin.\nMMP activity in the culture media was examined at 1 mM and 10 mM CaCl2, with no change in [Zn^2+] in the assay buffer. We employed 1 mM CaCl2, as this concentration is closer to physiological concentration, and 10 mM CaCl2, as it is reported to be the optimum concentration in in vitro assays (Woessner 1991). As is shown in Table 2, both CMT-3 and doxycycline inhibited in vitro activated gelatinases."}, "[2]": {"biological_target": "T1, Gelatinase A (Homo sapiens, UniProt P08253)", "T1 construct": "endogenous in cells; host or cells: C8161", "T1 sequence (P08253 110-660)": "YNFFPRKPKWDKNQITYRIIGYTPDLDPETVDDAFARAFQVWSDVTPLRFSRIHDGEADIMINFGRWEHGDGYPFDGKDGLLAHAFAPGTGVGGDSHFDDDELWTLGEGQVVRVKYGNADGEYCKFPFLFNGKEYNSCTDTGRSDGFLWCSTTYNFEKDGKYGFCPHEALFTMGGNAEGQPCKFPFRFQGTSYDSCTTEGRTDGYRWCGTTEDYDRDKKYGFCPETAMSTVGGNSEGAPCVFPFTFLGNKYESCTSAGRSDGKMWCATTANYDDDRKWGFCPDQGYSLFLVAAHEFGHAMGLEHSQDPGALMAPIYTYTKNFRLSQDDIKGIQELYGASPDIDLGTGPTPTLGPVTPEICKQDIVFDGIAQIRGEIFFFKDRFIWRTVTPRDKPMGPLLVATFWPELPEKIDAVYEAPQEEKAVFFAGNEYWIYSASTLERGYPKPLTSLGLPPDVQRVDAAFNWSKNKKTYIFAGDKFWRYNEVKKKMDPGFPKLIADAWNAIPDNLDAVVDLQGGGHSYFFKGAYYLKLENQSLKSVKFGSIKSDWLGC", "assay": "Zymography with densitometry of C8161 conditioned medium, gelatinase A", "assay_type": "cell-based", "conditions": "50 μg/mL, 24 hr", "procedure": "(§1) Six hundred thousand (6×10^5) C8161 cells were seeded per well in a 12-well dish coated with a laminin/collagen IV/gelatin matrix in DMEM plus Mito+ and 0.1% gentamicin sulfate. After approximately 1 hr incubation to allow the cells to attach, 50 μg/mL of either doxycycline or one of the other CMTs was added per well and the dish then placed in a 37° C. humidified 5% CO2 incubator. After 24 hr, the supernatants were removed and centrifuged to remove any cells or debris. One volume of Laemmli sample buffer minus reductant was added to two volumes of the medium, and this sample electrophoresed without prior heating or boiling on a 10% SDS-PAGE containing 0.1% gelatin (samples normalized based on the same number of cells per volume of medium per time of incubation). After electrophoresis, the gels were washed with gentle shaking at room temperature for 30 min in 50 mM Tris-HCl (pH 7.5) plus 2.5% TRITON® X100 plus 50 μg/mL of the corresponding CMT used in the original treatment. The gel was then placed in incubation buffer (50 mM Tris-Cl/10 mM CaCl2/150 mM NaCl/0.05% NaN3) also containing 50 μg/mL of the corresponding CMT, and incubated at 37° C. for 20-24 hr. The gels were stained with Coomassie BBR-250, then destained with 10% methanol/10% acetic acid in water until the wash remained clear. A photographic negative of the gel was digitized using a video camera and Snappy Video Snapshot system (Play Inc., Rancho Cordova, Calif.). An integrated density was determined for each of the cleared zones of proteolysis using the software ImagePC8α (freely available from the National Institutes of Health), and the corresponding changes in gelatinolytic activities reported compared to the control samples normalized to a value of 1.0."}, "[3]": {"biological_target": "T2, Gelatinase B (Homo sapiens, UniProt P14780)", "T2 construct": "endogenous in cells; host or cells: C8161", "T2 sequence (P14780 94-707)": "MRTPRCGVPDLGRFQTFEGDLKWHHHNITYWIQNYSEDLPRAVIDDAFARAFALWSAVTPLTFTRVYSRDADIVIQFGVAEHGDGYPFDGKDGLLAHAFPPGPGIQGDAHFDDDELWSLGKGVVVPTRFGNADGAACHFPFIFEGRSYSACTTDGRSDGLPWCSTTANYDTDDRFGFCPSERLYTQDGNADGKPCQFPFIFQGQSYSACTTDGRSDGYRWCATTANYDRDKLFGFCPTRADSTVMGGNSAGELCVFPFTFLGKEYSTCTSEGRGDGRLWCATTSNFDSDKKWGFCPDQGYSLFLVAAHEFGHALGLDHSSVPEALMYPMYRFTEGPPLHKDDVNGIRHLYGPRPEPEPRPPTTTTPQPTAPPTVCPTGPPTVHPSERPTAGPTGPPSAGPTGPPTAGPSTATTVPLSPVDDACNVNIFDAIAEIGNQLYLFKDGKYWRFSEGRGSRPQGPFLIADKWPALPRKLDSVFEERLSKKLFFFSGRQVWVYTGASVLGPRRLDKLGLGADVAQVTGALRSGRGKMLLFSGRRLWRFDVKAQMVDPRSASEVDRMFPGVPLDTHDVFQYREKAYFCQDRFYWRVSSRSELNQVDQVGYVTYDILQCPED", "assay": "Zymography with densitometry of C8161 conditioned medium, gelatinase B", "assay_type": "cell-based", "conditions": "50 μg/mL, 24 hr", "procedure": "as §1"}, "[4]": {"tested_on": "HIV-related Kaposi's Sarcoma", "assay": "Oral dose escalation study in patients with Kaposi's Sarcoma", "assay_type": "in vivo, human", "procedure": "CMT-3 was administered orally, once daily, in a dose escalating fashion to 3-6 subjects per dose cohort. Patients with symptomatic visceral Kaposi's Sarcoma or severe tumor-associated edema were excluded. Antiretroviral therapy was permitted but not required. Study endpoints were grade 3 or grade 4 toxicity or progression of disease. Preliminary analysis was performed. Eighteen patients received CMT-3 in dosing cohorts of 25, 50 and 70 mg/m^2/day. The average age was 39 years (range, 25-57). Median CD4 count was 352 cells/mm^3 (range, 6-694). Prior therapy for Kaposi's Sarcoma was reported by 16 (89%) patients; prior antiretroviral therapy by 16 (89%) patients. Half of the patients had ≧50 lesions at baseline. Grade 3 or higher events, which were possibly/definitely related to study drug, were reported by 6 patients and consisted of photosensitivity, increased pain, headache, rash and pruritis."}}, "note": "Like-named read-outs stand apart in the source and are kept apart here. Marks after values point to notes of the source that are not given here.", "data": [{"compound": "NC(=O)C1=C(O)CC2CC3Cc4cccc(O)c4C(=O)C3=C(O)C2(O)C1=O", "note": "(centres unmarked) [CMT-3, 6-demethyl-6-deoxy-4-de(dimethylamino)tetracycline]", "values": [{"measurement": "Percent Inhibition (gelatinase activity)", "setting": "[1]; 0.25 μM drug, 10 mM CaCl2", "result": "31.5 ± 1.2", "unit": "%"}, {"measurement": "Percent Inhibition (gelatinase activity)", "setting": "[1]; 0.50 μM drug, 1 mM CaCl2", "result": "84.8 ± 10.1", "unit": "%"}, {"measurement": "Percent Inhibition (gelatinase activity)", "setting": "[1]; 0.50 μM drug, 10 mM CaCl2", "result": "37.8 ± 7.5^b %"}, {"measurement": "Percent Inhibition (gelatinase activity)", "setting": "[1]; 1.0 μM drug, 1 mM CaCl2", "result": "96.7 ± 4.6^a %"}, {"measurement": "Percent Inhibition (gelatinase activity)", "setting": "[1]; 1.0 μM drug, 10 mM CaCl2", "result": "45.1 ± 2.9", "unit": "%"}, {"measurement": "Percent Inhibition (gelatinase activity)", "setting": "[1]; 2.0 μM drug, 10 mM CaCl2", "result": "51.2 ± 2.6", "unit": "%"}, {"measurement": "Percent Inhibition (gelatinase activity)", "setting": "[1]; 5.0 μM drug, 1 mM CaCl2", "result": "97.2 ± 2.9", "unit": "%"}, {"measurement": "Percent Inhibition (gelatinase activity)", "setting": "[1]; 5.0 μM drug, 10 mM CaCl2", "result": "52.4 ± 3.5", "unit": "%"}, {"measurement": "Percent Inhibition (gelatinase activity)", "setting": "[1]; 10 μM drug, 1 mM CaCl2", "result": 100, "unit": "%"}, {"measurement": "Percent Inhibition (gelatinase activity)", "setting": "[1]; 10 μM drug, 10 mM CaCl2", "result": "69.9 ± 10.5", "unit": "%"}, {"measurement": "Percent Inhibition (gelatinase activity)", "setting": "[1]; 20 μM drug, 10 mM CaCl2", "result": "78.9 ± 11.4", "unit": "%"}, {"measurement": "Percent Inhibition (gelatinase activity)", "setting": "[1]; 50 μM drug, 10 mM CaCl2", "result": "94.2 ± 3.3", "unit": "%"}, {"measurement": "IC50", "setting": "[1]; 1 mM CaCl2", "result": 500, "unit": "nM"}, {"measurement": "IC50", "setting": "[1]; 10 mM CaCl2", "result": "~1500", "unit": "nM"}, {"measurement": "Gelatinase A, integrated density normalized to control 1.00", "setting": "[2]", "result": 0.22}, {"measurement": "Gelatinase B, integrated density normalized to control 1.00", "setting": "[3]", "result": 0.03}, {"measurement": "Partial responses", "setting": "[4]; 25 mg/m^2/day cohort", "result": 2, "unit": "patients"}, {"measurement": "photosensitivity", "setting": "[4]; 25 mg/m^2/day cohort", "result": "no photosensitivity was observed"}, {"measurement": "Partial responses", "setting": "[4]; 50 mg/m^2/day cohort", "result": 2, "unit": "patients"}, {"measurement": "Partial responses", "setting": "[4]; 70 mg/m^2/day cohort", "result": 3, "unit": "patients"}, {"measurement": "Partial responses", "setting": "[4]; all cohorts, eighteen patients, oral once daily", "result": 7, "unit": "patients"}, {"measurement": "Grade 3 or higher events possibly/definitely related to study drug", "setting": "[4]; eighteen patients, 25, 50 and 70 mg/m^2/day", "result": 6, "unit": "patients"}, {"measurement": "tolerability", "setting": "[4]; oral once daily, particularly 25 mg/m^2/day", "result": "well tolerated"}]}]}
